Results published in publication PMC8480782, “Efficient Dimerization Disruption of Leishmania infantum Trypanothione Reductase by Triazole-phenyl-thiazoles” (Journal of Medicinal Chemistry, 2021).
Like-named read-outs stand apart in the source and are kept apart here.

Key:
TbTryR = target: T1, TbTryR (Trypanosoma brucei brucei, UniProt P39051); test: TryR oxidoreductase activity, DTNB-coupled assay (TbTryR); type: biochemical
T1 construct: HIS; made in house; host or cells: E. coli
Description: (§1) The DNA coding sequences for Homo sapiens GR, T. brucei TryR, and T. congolense TryR were polymerase chain reaction (PCR)-amplified and cloned in the pRSETA plasmid. The DNA coding for hGR (transcript variant 1; NCBI Reference Sequence: NM_000637.5) was purchased from GeneScript. Genomic DNA from T. congolense parasites was kindly provided by Dr. Stefan Magez (University of Vrije, Brussels). Genomic DNA from the T. brucei S16 cell line was kindly provided by José M. Pérez-Victoria. Instituto de Parasitología y Biomedicina “López—Neyra” CSIC. HIS-tagged recombinant T. brucei and T. congolense TryRs (TbTryR and TcoTryR, respectively) were purified from E. coli as already explained for LiTryR.
(§2) TryR oxidoreductase activity was determined spectrophotometrically using a modified version of the DTNB-coupled assay described by Hamilton et al.[52] Briefly, reactions were carried out at 26 °C in 250 μL of N-(2-hydroxyethyl)piperazine-N′-ethanesulfonic acid (HEPES) buffer (pH 7.5, 40 mM) containing ethylenediaminetetraacetic acid (EDTA) (1 mM), NADP^+ (30 μM), DTNB (25 μM), TS2 (1 μM), NADPH (150 μM), glycerol (0.02%), DMSO (1.75%), and recombinant TryR (7 nM). […] Reactions were started by addition of a mixture of NADPH and TS2.
(§3) TryR oxidoreductase activity was monitored at 26 °C by an increase in absorbance at 412 nm in an EnSpire Multimode Plate Reader (PerkinElmer, Waltham, MA). […] (TNB) concentration was obtained by multiplying the absorbance values by 100 (50 μM TNB generates 0.5 arbitrary units of absorbance at 412 nm). In this DTNB-coupled assay, one molecule of T(SH)2 reduces one molecule of DTNB, producing two TNB molecules. All of the assays were conducted in at least three independent experiments. Data were analyzed using a nonlinear regression model with GraFit 6 software (Erithacus, Horley, Surrey, U.K.).

[1] = tested on: THP-1 monocyte-derived macrophages; test: Cytotoxicity in THP-1 monocyte-derived macrophages (LDH activity); type: cell-based, human; settings: Homo sapiens, THP-1; LDH activity
Procedure: THP-1 cells were grown in RPMI-1640 medium (Gibco, Leiden, The Netherlands) supplemented with 10% heat-inactivated FCS, antibiotics, 10 mM HEPES, 2 mM glutamine, and 1 mM sodium pyruvate, pH 7.2, at 37 °C and 5% CO2.
(§4) THP-1 monocytes were seeded in a 48-well plate at a concentration of 5 × 10^5 cells/mL (250 μL/well) in RPMI complete medium supplemented with phorbol 12-myristate 13-acetate (PMA) (100 ng/mL). Differentiation of THP-1 monocytes to macrophages was allowed for 24 h at 37 °C and 5% CO2. THP-1-derived macrophages were infected with GFP-expressing axenic amastigotes at 5 × 10^6 parasites/mL in RPMI complete medium for 24 h (250 μL/well). Extracellular amastigotes were washed twice with PBS. The remaining extracellular parasites were challenged for 24 h with THP-1 medium supplemented with 10% horse serum (Gibco) instead of FCS. Cells were washed twice with PBS, and treatments were performed in 250 μL of fresh RPMI medium supplemented with 10% horse serum for 72 h at 37 °C and 5% CO2. Afterward, treatments were removed by two PBS washes. Lysis of infected cells was performed with 120 μL of SDS 0.005% (w/v) in PBS. After a 30 min incubation at 37 °C, lysis was stopped by adding RPMI complete medium with PI at 20 μg/mL (120 μL/well). The lysates were transferred to a 96-well plate (200 μL/well), and the GFP^+ amastigotes extracted from the infected cells were acquired by a Beckman Coulter FC500 flow cytometer. Each sample (100 μL) was acquired for 20 s.
Cytotoxicity of THP-1 infected macrophages was determined using an in-house developed lactate dehydrogenase (LDH) activity assay. LDH activity assays from the remaining cell lysates (100 μL/well) were carried out at 37 °C in 250 μL of Tris/HCl buffer (pH 8.9, 50 mM) containing DL-lactate (840 mM), NAD^+ (450 μM), 1-methoxyphenazine methosulfate (45 μM), and nitro blue tetrazolium chloride (40 μM). The color intensity of the generated formazan dye was monitored at 570 nm using an EnSpire Multimode Plate Reader (PerkinElmer, Waltham, MA). CC50 values were calculated using a nonlinear regression model with GraFit 6 software (Erithacus, Horley, Surrey, U.K.).

[2] = tested on: L. infantum intracellular amastigotes; test: Leishmanicidal activity in amastigote-infected THP-1 monocyte-derived macrophages; type: cell-based, Leishmania infantum
Procedure: as §4
The relative number of GFP^+ intracellular amastigotes per cell in each sample was estimated after the division of the total number of GFP+ amastigotes by the LDH activity value of the sample. Results were normalized to the vehicle-treated controls. EC50 values of intracellular amastigotes were calculated using a nonlinear regression model with GraFit 6 software (Erithacus, Horley, Surrey, U.K.). All of the assays were conducted in at least three independent experiments.

TcoTryR = target: T2, TcoTryR (Trypanosoma congolense, UniProt P13110); test: TryR oxidoreductase activity, DTNB-coupled assay (TcoTryR); type: biochemical
T2 construct: HIS; made in house; host or cells: E. coli
T2 sequence (P13110 whole entry): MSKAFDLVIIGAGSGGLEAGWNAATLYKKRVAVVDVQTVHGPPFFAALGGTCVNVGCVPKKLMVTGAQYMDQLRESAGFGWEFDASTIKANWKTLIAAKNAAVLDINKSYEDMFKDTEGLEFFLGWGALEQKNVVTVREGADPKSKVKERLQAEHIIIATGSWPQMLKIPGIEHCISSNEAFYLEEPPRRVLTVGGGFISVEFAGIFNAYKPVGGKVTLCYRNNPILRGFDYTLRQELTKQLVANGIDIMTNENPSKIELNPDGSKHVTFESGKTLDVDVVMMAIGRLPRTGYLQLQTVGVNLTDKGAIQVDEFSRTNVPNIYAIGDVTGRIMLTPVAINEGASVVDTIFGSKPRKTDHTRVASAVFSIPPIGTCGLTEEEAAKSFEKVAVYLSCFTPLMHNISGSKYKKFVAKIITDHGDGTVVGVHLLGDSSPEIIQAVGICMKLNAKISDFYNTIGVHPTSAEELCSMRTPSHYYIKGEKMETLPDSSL
Description: as §1, §2, §3

[3] = read-out: IC50, oxidoreductase activity of TbTryR
[4] = Leishmania infantum, THP-1, 72 h, read-out: EC50 intracellular amastigotes, amastigote-infected THP-1 macrophages, 72 h
[5] = Leishmania infantum, THP-1, 72 h, amastigote-infected THP-1 macrophages, 72 h, read-out: EC50 intracellular amastigotes

T1 sequence (P39051 whole entry): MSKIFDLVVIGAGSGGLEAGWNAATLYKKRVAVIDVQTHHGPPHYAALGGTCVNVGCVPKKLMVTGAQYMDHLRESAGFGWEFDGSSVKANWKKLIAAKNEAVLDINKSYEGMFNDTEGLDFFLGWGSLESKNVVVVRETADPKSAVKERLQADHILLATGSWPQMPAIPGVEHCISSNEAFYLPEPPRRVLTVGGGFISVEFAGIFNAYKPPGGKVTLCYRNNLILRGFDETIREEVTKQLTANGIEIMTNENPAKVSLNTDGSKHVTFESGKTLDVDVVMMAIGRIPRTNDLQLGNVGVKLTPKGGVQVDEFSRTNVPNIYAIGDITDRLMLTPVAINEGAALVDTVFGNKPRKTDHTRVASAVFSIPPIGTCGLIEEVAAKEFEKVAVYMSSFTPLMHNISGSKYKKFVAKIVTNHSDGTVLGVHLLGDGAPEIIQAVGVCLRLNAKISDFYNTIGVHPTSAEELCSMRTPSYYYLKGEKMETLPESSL

Work on `NCCCCc1cn(-c2ccc(-c3nc(-c4cccc(-c5csc(-c6ccc(-n7cc(CCCCN)nn7)cc6OCCN6CCNC6=O)n5)c4)cs3)c(OCCN3CCNC3=O)c2)nn1.O=C(O)C(F)(F)F.O=C(O)C(F)(F)F` [compound 22, 1,1′-((((1,3-Phenylenebis(thiazole-4,2-diyl))bis(5-(4-(4-ammoniobutyl)-1H-1,2,3-triazol-1-yl)-2,1-phenylene))bis(oxy))bis(ethane-2,1-diyl))bis(imidazolidin-2-one)bis(2,2,2-trifluoroacetate)] yielded an IC50 (TbTryR; [3]) of 1 ± 0.3 µM, an EC50 [1] of 48.4 ± 14.5 µM and an EC50 [2, 4] of 22 µM. The “SI (intracellular amastigotes)” value ([2]; THP-1 / intracellular amastigotes) was 2.2, the EC50 ([2]; read-out: EC50 intracellular amastigotes, amastigote-infected THP-1 macrophages, 72 h) was 22.2 ± 6.4 µM and the IC50 (TcoTryR) was 0.5 ± 0.1 µM.

Work on `NCCCCc1cn(-c2ccc(-c3nc(-c4ccccc4)cs3)c(OCCN3CCNC3=O)c2)nn1.O=C(O)C(F)(F)F` [12n] yielded an IC50 (TbTryR; [3]) of 12.5 ± 1.9 µM and an IC50 (TcoTryR) of 9.3 ± 0.8 µM.

`NCCCCc1cn(-c2ccc(-c3nc(CCc4ccc5c(c4)CCCN5)cs3)c(OCCN3CCNC3=O)c2)nn1.O=C(O)C(F)(F)F.O=C(O)C(F)(F)F` [12q] was tested, and the EC50 [1] was greater than 75 µM and the EC50 [2, 5] was greater than 75 µM.

For `NCCCCc1cn(-c2ccc(-c3nc(-c4ccc(Oc5ccccc5)cc4)c(-c4ccccc4)s3)c(OCCN3CCNC3=O)c2)nn1.O=C(O)C(F)(F)F` [19c, 1-(2-(5-(4-(4-Ammoniobutyl)-1H-1,2,3-triazol-1-yl)-2-(4-([4-phenyloxyphenyl]-1-yl)-5-phenylthiazol-2-yl)phenoxy)ethyl)imidazolidin-2-one 2,2,2-Trifluoroacetate], the EC50 [1] was greater than 75 µM and the EC50 [2, 4] was greater than 75 µM.

Molecule `NCCNCc1nccn1-c1ccc(-c2nc(CCc3ccc(-c4ccccc4)cc3)cs2)c(OCCN2CCNC2=O)c1` [compound 3, reference compound] has an EC50 [1] of 15.5 ± 1.8 µM and an EC50 [2, 5] greater than 75 µM.

`NCCCCc1cn(-c2ccc(-c3nc(CCc4ccc5c(c4)CCO5)cs3)c(OCCN3CCNC3=O)c2)nn1.O=C(O)C(F)(F)F` [12r] gave an IC50 (TbTryR) of 15 ± 2.9 µM and an IC50 (TcoTryR) of 10.1 ± 1.4 µM.

Molecule `NCCNCc1nccn1-c1ccc(-c2nc(CCc3ccc4ccccc4c3)cs2)c(OCCN2CCNC2=O)c1` [compound 2, reference compound] has an EC50 [1] of 27.9 ± 4.4 µM and an EC50 [2, 5] greater than 75 µM.

Molecule `NCCCc1cn(-c2ccc(-c3nc(CCc4ccc(-c5ccccc5)cc4)cs3)c(OCCN3CCNC3=O)c2)nn1.O=C(O)C(F)(F)F` [12i] has an EC50 [1] greater than 75 µM, an EC50 [2, 5] of 54.5 µM and an EC50 ([2]; amastigote-infected THP-1 macrophages, 72 h, read-out: EC50 intracellular amastigotes) of 54.4 ± 15.5 µM.

For `NCCCCc1cn(-c2ccc(-c3nc(CCc4ccc5ccccc5c4)cs3)c(OCCN3CCNC3=O)c2)nn1.O=C(O)C(F)(F)F` [12b, 1-(2-(5-(4-(4-Ammoniumbutyl)-1H-1,2,3-triazol-1-yl)-2-(4-(2-(naphthalen-2-yl)ethyl)thiazol-2-yl)phenoxy)ethyl)imidazolidin-2-one 2,2,2-Trifluoroacetate], the IC50 (TbTryR; [3]) was 9.7 ± 2.1 µM, the EC50 [1] was greater than 75 µM and the EC50 [2, 4] was greater than 75 µM. It also gave an IC50 (TcoTryR) of 4.8 ± 1.9 µM.

With `NCCCCc1cn(-c2ccc(-c3nc(-c4ccccc4)c(-c4ccccc4)s3)c(OCCN3CCNC3=O)c2)nn1.O=C(O)C(F)(F)F` [19a, 1-(2-(5-(4-(4-Ammoniobutyl)-1H-1,2,3-triazol-1-yl)-2-(4,5-diphenylthiazol-2-yl)phenoxy)ethyl)imidazolidin-2-one 2,2,2-Trifluoroacetate] the IC50 (TbTryR; [3]) was 7.3 ± 0.6 µM and the IC50 (TcoTryR) was 5.6 ± 0.8 µM.

`NCCCCc1cn(-c2ccc(-c3nc(CCc4ccc(-c5ccccc5)cc4)cs3)c(OCCN3CCNC3=O)c2)nn1.O=C(O)C(F)(F)F` [12c, 1-(2-(2-(4-(2-([1,1′-Biphenyl]-4-yl)ethyl)thiazol-2-yl)-5-(4-(4-ammoniumbutyl)-1H-1,2,3-triazol-1-yl)phenoxy)ethyl)imidazolidin-2-one 2,2,2-Trifluoroacetate] gave an IC50 (TbTryR; [3]) of 10 ± 2.5 µM, an EC50 [1] greater than 75 µM and an EC50 [2, 4] of 46.5 ± 1.5 µM. It also gave an IC50 (TcoTryR) of 4.8 ± 1.8 µM.
